# Measurements: patent US10987327B2, “Method for preventing or treating autism spectrum disorders by benzoic acid salt” (EXCELSIOR PHARMATECH LABS, priority 2017, dated 2021)
# Where “and” joins values, the source holds several entries; their conditions need not be identical. Equal entries are not always repeated. Entries after “also recorded” stand apart in the source; their conditions may differ.
# Key:
# children with ASD [1] = assay: Adaptive Behavior Assessment System-II (ABAS-II), 12-week open label trial; assay type: in vivo, human; conditions: sodium benzoate 250 to 500 mg/day, 12 weeks, c2-c7 = child A-F
# Experimental: (§1) Six children with ASD were treated with 250 to 500 mg/day of sodium benzoate for 12 weeks. At the baseline and the final (12 weeks) visit, the assessments of receptive and expressive vocabulary test (REVT), core vocabularies gained in the core vocabulary communication system, Chinese child developmental inventory, adaptive behavior assessment system-II (ABAS-II), parenting stress index (PSI), clinical global impression-improvement scale (CGI-I) were arranged.
# (§2) This study was a twelve-week open label trial with the aim of gaining experience with sodium benzoate for the treatment of non-communicative children with ASDs. The participants were a convenient sample of outpatients children recruited from the Department of Pediatrics, Kaohsiung Medical University Hospital, Taiwan.
# Six children, including five boys and 1 child with ages between 3-year-7-month to 9-year-10-month old, were assigned to receive a 12-week treatment of sodium benzoate. For children with a body weight equal or more than 15 kg, benzoate was given with 500 mg/day. […]
# The ABAS-II is an individually administered, norm-referenced measure of adaptive behaviors (Harrison and Oakland, 2003). […] A Global Adaptive Composite (GAC) score is calculated from all nine skill area scores and presented as a norm-referenced standard score. Results were recorded by the pre- and post-GAC score and Social score.
# children with ASD [2] = assay: Clinical Global Impression-Improvement Scale (CGI-I) and clinicians' conclusion, 12-week open label trial; assay type: in vivo, human; conditions: for Clinicians' conclusion on improvement of the individual child (text): after 12 weeks, b64-b69 = child A-F in order
# Experimental: as §1, §2
# (§3) Six children, including five boys and 1 child with ages between 3-year-7-month to 9-year-10-month old, were assigned to receive a 12-week treatment of sodium benzoate. For children with a body weight equal or more than 15 kg, benzoate was given with 500 mg/day. For children with a body weight less than 15 kg, benzoate was given with 250 mg/day. Sodium benzoate was provided by Excelsior Pharmatech Labs (Taiwan).
# (§4) All the children entering this study also started to receive communication training using the Core Vocabulary Communication System—Chinese version (the Unlimiter Assistive Technology Engineering Lab, Taiwan). Parents were required to teach their children 40 minutes per day at home using this System. During the 12-week period, the parents were required to bring children back the hospital every 2 weeks. At the baseline and the final (12 weeks) visit, the following assessments were arranged.
# The CGI-I is an observer-rated scale that measures the global improvement of illness as compared to condition at admission to the trial (Guy, 1976).
# children with ASD [3] = assay: Parenting Stress Index-Chinese version (PSI), 12-week open label trial; assay type: in vivo, human; conditions: sodium benzoate 250 to 500 mg/day, 12 weeks; * = above 85 percentile; c2-c7 = child A-F; Pre-Tx A-F: 70, 97.5, 99, 99, 69, 50
# Experimental: as §1, §2
# Six children, including five boys and 1 child with ages between 3-year-7-month to 9-year-10-month old, were assigned to receive a 12-week treatment of sodium benzoate. For children with a body weight equal or more than 15 kg, benzoate was given with 500 mg/day. For children with a body weight less than 15 kg, benzoate was given with 250 mg/day. […]
# Primary caregiver filled out the Chinese version of the parenting stress index (Wen, 2003) which was a validated Chinese version of the original questionnaire developed by Abdin (Abidin, 1986) that measured aspects of parental functioning. […]
# [4] = test system: early-phase Alzheimer disease; conditions: prior trial; cited from earlier work
# schizophrenia = conditions: prior trial; cited from earlier work
# children with ASD [5] = assay: Safety observations (activity level, sleep) in the 12-week open label trial; assay type: in vivo, human; conditions: for Sleep: child C first 3 days of benzoate usage, child D, child E; for Activity level (untoward activating effect): child D at final assessment, child E in the first two weeks, returned to baseline one month later
# From the text: The present disclosure examined the efficacy and safety of sodium benzoate, a D-amino acid oxidase inhibitor, for the treatment of an autism spectrum disorder.
# as §2, §3, §4
smiles,measurement,setting,value
O=C([O-])c1ccccc1.[Na+] [sodium benzoate],"ABAS-S: Parental reported Social Score, Post-Tx","children with ASD [1]; Pre-Tx A-F: 71, 51, 57, 61, 46, 45",77 and 51 and 50 and 44 and 46 and 45
same,"ABAS-GCS: Parental reported General Adaptive Composite Score, Post-Tx","children with ASD [1]; Pre-Tx A-F: 77, 60, 47, 53, 50, 58",77 and 61 and 46 and 49 and 53 and 57
same,Clinicians' conclusion on improvement of the individual child (text),children with ASD [2],much improved; also recorded: no improvement; also recorded: minimally improved
same,Clinicians' conclusion on improvement of the individual child (text),children with ASD [2]; listed as benzoate,minimal improvement
same,Overall effect in teaching of communication skill as observed by the parents and clinicians,"children with ASD [2]; six children, 12 weeks",beneficial effects
same,Participants judged to be much improved,"children with ASD [2]; six children, 12 weeks, child A, B, E",Half of the participants
same,CGI: Clinical Global Impression-Improvement,"children with ASD [2]; sodium benzoate 250 to 500 mg/day, 12 weeks, c2-c7 = child A-F",much ((2) much improved); also recorded: mini-; also recorded: nil ((4) no change)
same,"PSI % (parenting stress index, derived raw-to-percentile score), Post-Tx",children with ASD [3],62% and 93* % and 99* % and 99.9* % and 75% and 72%
same,"Clinical symptoms, neurocognitive ability and quality of life",[4],Significant improvements
same,"Clinical symptoms, neurocognitive ability and quality of life",schizophrenia,Significant improvements
same,Sleep,children with ASD [5],sleep pattern was unaltered
same,Sleep,children with ASD [5]; listed as benzoate,not able to fall asleep at their usual sleep time
same,Activity level (untoward activating effect),children with ASD [5],activity level became even higher; also recorded: activity level increased
same,Activity level (untoward activating effect),children with ASD [5]; listed as benzoic acid salt,untoward activating effect
